From patent US9593108B2, “Compounds and methods for antiviral treatment” (PTC Therapeutics, Inc., priority 2009, dated 2017) come the findings set out here.

Data set [1] concerns HCV replicon RNA (GenBank Accession No. AJ242654). Kind of data set: HCV Replicon Assay (replicon RNA reduction and/or Fluc reporter signal). Format: cell-based, Hepatitis C virus. Particulars: Hepatitis C virus, 72 h, replicon-containing cells cultured with test compound for up to 3 days. The text has this: The lack of reliable and readily accessible cell-culture and small animal models permissive for HCV replication has limited the development of new anti-HCV agents. Self-replicating subgenomic HCV systems, termed HCV replicons, have been described and have been widely used to assess the efficacy of anti-HCV inhibitors (see Blight K J, et al., 2000, Efficient initiation of HCV RNA replication in cell culture. Science 290:1972-1974; Blight K J, et al., 2002, Highly permissive cell lines for subgenomic and genomic hepatitis C virus RNA replication. J Virol 76:13001-13014; Ikeda M, et al., 2002. Selectable subgenomic and genome-length dicistronic RNAs derived from an infectious molecular clone of the HCV-N strain of hepatitis C virus replicate efficiently in cultured Huh7 cells. J Virol 76:2997-3006; Lohmann V, et al., 1999, Replication of subgenomic hepatitis C virus RNAs in a hepatoma cell line. Science 285:110-113; Pietschmann T, et al., 2002, Persistent and transient replication of full-length hepatitis C virus genomes in cell culture. J Virol 76:4008-4021; and, Pietschmann T, et al., 2001, Characterization of cell lines carrying self-replicating hepatitis C virus RNAs. J Virol 75:1252-1264).
As described in U.S. Pat. No. 6,630,343, HCV inhibitors are analyzed in the bicistronic replicon by quantitating replicon RNA (GenBank Accession No. AJ242654) reduction and/or the Fluc reporter signal. Replicon-containing cells may be cultured with a test compound of the present invention for up to 3 days. Interferon (IFN) is used as a positive control. In general, the replicon IC50 values shown in Table 1 represent IC50 values determined by replicon RNA reduction.
In general terms: Replicon systems follow genome replication, usually without infectious particles.

Where only a bound is given, the exact number is not on record here.

The IC50 is the concentration at which inhibition is half-maximal. What is called melting point is the temperature of the solid-liquid transition. `CC(C)NS(=O)(=O)c1ccc(-c2c(C#N)c3cc(Cl)cnc3n2CC2CC2)cc1` [Cpd 1, 4-[5-chloro-3-cyano-1-(cyclopropylmethyl)-1H-pyrrolo[2,3-b]pyridin-2-yl]-N-(propan-2-yl)benzenesulfonamide] showed a melting point of 113 to 116 °C. In addition, in data set [1], the IC50 was under 500 nM. `COc1cnc2c(c1)c(C#N)c(-c1ccc(S(=O)(=O)NC(C)C)cc1)n2CC1CC1` [Cpd 2, 4-[3-cyano-1-(cyclopropylmethyl)-5-methoxy-1H-pyrrolo[2,3-b]pyridin-2-yl]-N-(propan-2-yl)benzenesulfonamide] registered a melting point of 151 to 153 °C. Also, the IC50 in data set [1] is under 500 nM.

As for `COc1ccc2c(n1)c(C#N)c(-c1ccc(NS(=O)(=O)C(C)C)cc1)n2CC1CC1` [Cpd 3, N-{4-[3-cyano-1-(cyclopropylmethyl)-5-methoxy-1H-pyrrolo[3,2-b]pyridin-2-yl]phenyl}propane-2-sulfonamide], the melting point was in the range of 230 to 232 °C. The same molecule registered an IC50 in data set [1] of under 500 nM.

In turn, `Cc1cnc(-n2c(-c3ccc(S(=O)(=O)N[C@@H](C)C(F)(F)F)cn3)c(C#N)c3cc(C(F)(F)F)cnc32)cn1` [Cpd 354, 6-[3-cyano-1-(5-methylpyrazin-2-yl)-5-(trifluoromethyl)-1H-pyrrolo[2,3-b]pyridin-2-yl]-N-[(2S)-1,1,1-trifluoropropan-2-yl]pyridine-3-sulfonamide] showed an IC50 in data set [1] of under 500 nM.

On to `CC(C)(NS(=O)(=O)c1ccc(-c2c(C#N)c3cc(C(F)(F)F)cnc3n2C2CC2)cc1)C(F)(F)F` [Cpd 361, 4-[3-cyano-1-cyclopropyl-5-(trifluoromethyl)-1H-pyrrolo[2,3-b]pyridin-2-yl]-N-(1,1,1-trifluoro-2-methylpropan-2-yl)benzenesulfonamide], for which the IC50 in data set [1] lay within 2000 to 5000 nM. Same read-out and setting: the value for `CC(C)(C)S(=O)(=O)Nc1ccc(-c2c(C#N)c3cc(C(F)(F)F)cnc3n2C2CC2)cc1` [Cpd 362, N-{4-[3-cyano-1-cyclopropyl-5-(trifluoromethyl)-1H-pyrrolo[2,3-b]pyridin-2-yl]phenyl}-2-methylpropane-2-sulfonamide] was 500 to 2000 nM. With `CC1(NS(=O)(=O)c2ccc(-c3c(C(N)=O)c4cc(Cl)cnc4n3C3CCC3)nc2)CC1` [Cpd 366, 5-chloro-1-cyclobutyl-2-{5-[(1-methylcyclopropyl)sulfamoyl]pyridin-2-yl}-1H-pyrrolo[2,3-b]pyridine-3-carboxamide], the IC50 in data set [1] was under 500 nM. In data set [1], `C[C@H](NS(=O)(=O)c1cnc(-c2c(C(N)=O)c3cccnc3n2C2CCC2)nc1)C(F)(F)F` [Cpd 367, 1-cyclobutyl-2-(5-{[(2S)-1,1,1-trifluoropropan-2-yl]sulfamoyl}pyrimidin-2-yl)-1H-pyrrolo[2,3-b]pyridine-3-carboxamide] had an IC50 of 2000 to 5000 nM. Molecule `CC(C)(C)NS(=O)(=O)c1ccc(-c2c(C#N)c3cc(F)cnc3n2C2CCC2)cc1` [Cpd 369, N-tert-butyl-4-(3-cyano-1-cyclobutyl-5-fluoro-1H-pyrrolo[2,3-b]pyridin-2-yl)benzenesulfonamide] showed a half-maximal inhibitory concentration (IC50) in data set [1] of 500 to 2000 nM. For the molecule `C[C@H](NS(=O)(=O)c1ccc(-c2c(C#N)c3cc(S(C)(=O)=O)cnc3n2C2CCC2)nc1)C(F)(F)F` [Cpd 370, 6-[3-cyano-1-cyclobutyl-5-(methylsulfonyl)-1H-pyrrolo[2,3-b]pyridin-2-yl]-N-[(2S)-1,1,1-trifluoropropan-2-yl]pyridine-3-sulfonamide], the half-maximal inhibitory concentration (IC50) in data set [1] is under 500 nM. As for `CC(C)(NS(=O)(=O)c1ccc(-c2c(C(N)=O)c3cc(C4CC4)cnc3n2C2CCC2)cc1)C(F)(F)F` [Cpd 372, 1-cyclobutyl-5-cyclopropyl-2-{4-[(1,1,1-trifluoro-2-methylpropan-2-yl)sulfamoyl]phenyl}-1H-pyrrolo[2,3-b]pyridine-3-carboxamide], the IC50 in data set [1] is under 500 nM.

Consider `NC(=O)c1c(-c2ccc(S(=O)(=O)NC3(C(F)(F)F)CC3)cn2)n(C2CCC2)c2ncc(C3CC3)cc12` [Cpd 374, 1-cyclobutyl-5-cyclopropyl-2-(5-{[1-(trifluoromethyl)cyclopropyl]sulfamoyl}pyridin-2-yl)-1H-pyrrolo[2,3-b]pyridine-3-carboxamide], for which the IC50 in data set [1] is under 500 nM.

Turning to `CC(C)(C)NS(=O)(=O)c1ccc(-c2c(C(N)=O)c3cc(C4CC4)cnc3n2C2CCC2)cc1` [Cpd 375, 2-[4-(tert-butylsulfamoyl)phenyl]-1-cyclobutyl-5-cyclopropyl-1H-pyrrolo[2,3-b]pyridine-3-carboxamide], the 50% inhibitory concentration (IC50) in data set [1] was under 500 nM.

`CCc1cnc2c(c1)c(C(N)=O)c(-c1ccc(S(=O)(=O)NC3(C(F)(F)F)CC3)cn1)n2C1CCC1` [Cpd 380, 1-cyclobutyl-5-ethyl-2-(5-{[1-(trifluoromethyl)cyclopropyl]sulfamoyl}pyridin-2-yl)-1H-pyrrolo[2,3-b]pyridine-3-carboxamide] returned a 50% inhibitory concentration (IC50) in data set [1] of under 500 nM.

In data set [1], `CCc1cnc2c(c1)c(C(N)=O)c(-c1ccc(S(=O)(=O)NC(C)(C)C)cc1)n2C1CCC1` [Cpd 381, 2-[4-(tert-butylsulfamoyl)phenyl]-1-cyclobutyl-5-ethyl-1H-pyrrolo[2,3-b]pyridine-3-carboxamide] gave a 50% inhibitory concentration (IC50) of under 500 nM. Molecule `CCc1cnc2c(c1)c(C(N)=O)c(-c1ccc(S(=O)(=O)NC(C)(C)C)cn1)n2C1CCC1` [Cpd 382, 2-[5-(tert-butylsulfamoyl)pyridin-2-yl]-1-cyclobutyl-5-ethyl-1H-pyrrolo[2,3-b]pyridine-3-carboxamide] had an IC50 in data set [1] of 500 to 2000 nM. In data set [1], `CSc1cnc2c(c1)c(C(=O)O)c(-c1ccc(S(=O)(=O)N[C@@H](C)C(F)(F)F)cn1)n2C1CCC1` [Cpd 386, 1-cyclobutyl-5-(methylsulfanyl)-2-(5-{[(2S)-1,1,1-trifluoropropan-2-yl]sulfamoyl}pyridin-2-yl)-1H-pyrrolo[2,3-b]pyridine-3-carboxylic acid] registered an IC50 of 500 to 2000 nM. Molecule `CSc1cnc2c(c1)c(C(N)=O)c(-c1ccc(S(=O)(=O)NC3(C(F)(F)F)CC3)cc1)n2C1CCC1` [Cpd 389, 1-cyclobutyl-5-(methylsulfanyl)-2-(4-{[1-(trifluoromethyl)cyclopropyl]sulfamoyl}phenyl)-1H-pyrrolo[2,3-b]pyridine-3-carboxamide] registered a half-inhibitory concentration (IC50) in data set [1] of under 500 nM. For the molecule `CSc1cnc2c(c1)c(C(=O)O)c(-c1ccc(S(=O)(=O)NC3(C(F)(F)F)CC3)cc1)n2C1CCC1` [Cpd 390, 1-cyclobutyl-5-(methylsulfanyl)-2-(4-{[1-(trifluoromethyl)cyclopropyl]sulfamoyl}phenyl)-1H-pyrrolo[2,3-b]pyridine-3-carboxylic acid], in data set [1], the 50% inhibitory concentration (IC50) is 500 to 2000 nM. `CNc1cnc2c(c1)c(C#N)c(-c1ccc(S(=O)(=O)N[C@@H](C)C(F)(F)F)cn1)n2C1CCC1` [Cpd 394, 6-[3-cyano-1-cyclobutyl-5-(methylamino)-1H-pyrrolo[2,3-b]pyridin-2-yl]-N-[(2S)-1,1,1-trifluoropropan-2-yl]pyridine-3-sulfonamide] came in with a 50% inhibitory concentration (IC50) in data set [1] of under 500 nM. `N#Cc1c(-c2ccc(S(=O)(=O)NC3(C(F)(F)F)CC3)cc2)n(C2CCC2)c2ncc(C(F)(F)F)cc12` [Cpd 397, 4-[3-cyano-1-cyclobutyl-5-(trifluoromethyl)-1H-pyrrolo[2,3-b]pyridin-2-yl]-N-[1-(trifluoromethyl)cyclopropyl]benzenesulfonamide]: in data set [1], the IC50 was under 500 nM. Turning to `COc1cnc2c(c1)c(C(N)=O)c(-c1ccc(S(=O)(=O)NC3(C)CC3)cn1)n2C1CCCC1` [Cpd 410, 1-cyclopentyl-5-methoxy-2-{5-[(1-methylcyclopropyl)sulfamoyl]pyridin-2-yl}-1H-pyrrolo[2,3-b]pyridine-3-carboxamide], the 50% inhibitory concentration (IC50) in data set [1] was in the range of 500 to 2000 nM. On the same count and under the same terms, the same measure for `CC(C)(C)S(=O)(=O)Nc1ccc(-c2c(C(N)=O)c3cc(C(F)(F)F)cnc3n2C2CCCCC2)cc1` [Cpd 445, 2-{4-[(tert-butylsulfonyl)amino]phenyl}-1-cyclohexyl-5-(trifluoromethyl)-1H-pyrrolo[2,3-b]pyridine-3-carboxamide]: under 500 nM.

Molecule `[C-]#[N+]c1cnc(-n2c(-c3ccc(S(=O)(=O)N[C@@H](C)C(F)(F)F)cn3)c(C#N)c3cc(C)cnc32)s1` [Cpd 451, 6-[3-cyano-1-(5-isocyano-1,3-thiazol-2-yl)-5-methyl-1H-pyrrolo[2,3-b]pyridin-2-yl]-N-[(2S)-1,1,1-trifluoropropan-2-yl]pyridine-3-sulfonamide] returned a half-inhibitory concentration (IC50) in data set [1] of under 500 nM. `CC(C)(NS(=O)(=O)c1ccc(-c2c(C#N)c3cc(C(F)F)cnc3n2C2CCC2)nc1)C(F)(F)F` [Cpd 456, 6-[3-cyano-1-cyclobutyl-5-(difluoromethyl)-1H-pyrrolo[2,3-b]pyridin-2-yl]-N-(1,1,1-trifluoro-2-methylpropan-2-yl)pyridine-3-sulfonamide] registered a half-maximal inhibitory concentration (IC50) in data set [1] of under 500 nM.

In turn, `N#Cc1c(-c2ccc(S(=O)(=O)NC3(C(F)(F)F)CC3)cn2)n(C2CCC2)c2ncc(C(F)F)cc12` [Cpd 457, 6-[3-cyano-1-cyclobutyl-5-(difluoromethyl)-1H-pyrrolo[2,3-b]pyridin-2-yl]-N-[1-(trifluoromethyl)cyclopropyl]pyridine-3-sulfonamide] gave an IC50 in data set [1] of under 500 nM.
